Laboratory results taken from patent US3932633A, “Novel o-triazenobenzamides, in treating aggressive behavior” (Uniroyal Inc., priority 1974, dated 1976).
Structures can show the parent of a compound that is named as a salt. Where two headings read alike, the source gives them in different places.

Assays:
[1] = test system: tetrabenazine-induced ptosis in mice; settings: stated as known comparison; cited from earlier work
[2] = test system: isolation-induced fighting in mice; assay: Isolated fighting mouse (IFM) test / isolated mouse aggression; format: in vivo; settings: for protected test animals in the IFM test: dose not restated in this sentence; for responders at 30 mg/kg / ED50: Mus musculus, ip; for responders at 30 mg/kg: 30 mg/kg intraperitoneally, at least 40% protected = active
Procedure: *IFM - Isolated fighting mouse test at a dose of 30 mg/kg
intraperitoneally; those compounds which protected at least 40% of the
(§1) Two models of aggression are used in the primary screening for neuroleptics, (1) isolation-induced fighting in mice (IFM), and (2) aggression induced in rats by destruction of the septal area (septal rat). Compounds are first submitted, however, to the neuropharmacological profile, a standard procedure (see, e.g., Samuel Irwin, Science, 136, 123 [1962]) employed in screening a compound to determine its usefulness as a central nervous system active compound. Those agents which cause depression over a wide dose range are then submitted to the first anti-aggression screen, the isolation-induced fighting mouse assay.
(§2) The compound of Example 6 was compared with chlorpromazine and chlordiazepoxide for its anti-aggressive activity. Three models of experimentally-induced aggression in rodents were studied (R. D. Sofia, Life Science, 8: 705, 1969).

[3] = Neurotoxicity (rotating rod / rotorod), mice; settings: mouse, in vivo
Procedure: (§3) In the neurotoxicity test, the value (NTD50) is defined as the dose necessary to cause 50% of mice or rats trained to walk a rotating wooden rod (5 rpm) to fall at the time of peak effect, and is a measure of drug effects on motor function or central nervous system toxicity. The results set forth in Table III were obtained when the compound of Example 6 was tested against chlorpromazine and chlordiazepoxide.

[4] = test system: mice trained to walk a rotating wooden rod; assay: Neurotoxicity (rotating rod / rotorod), mice; settings: mouse, in vivo
Procedure: as §3

[5] = test system: isolation-induced fighting in mice; assay: Isolated fighting mouse (IFM) test / isolated mouse aggression; format: in vivo; settings: ip, 60 mg/kg intraperitoneally, read-out: IFM % protected
[6] = test system: aggression induced in rats by destruction of the septal area; assay: Septal rat aggression; format: in vivo; settings: for ED50: Rattus norvegicus, ip
Text: as §1, §2

5 day lethality, mice = settings: mouse, in vivo
Text: (§4) Table VIII gives the results of 5 day lethality studies following single injections of drug. All values presented represent tests conducted when animals were housed 10 per cage. The compound of Example 6 was compared with chlorpromazine and chlordiazepoxide. In these and all the preceding calculations, the method of Litchfield and Wilcoxon (J. Pharmacol. Exptl. Ther., 96: 99, 1949) was used to estimate effective (ED50) or lethal (LD50) dose.

mice = assay: Neuropharmacological profile; format: in vivo, mouse
Text: as §1
The compound of Example 6 was studied in the neuropharmacological profile, which, as indicated above, is a standardized multi-dimensional observation technique used on mice to grade symptomatology and acute toxicity relative to dosage.

[7] = test system: spontaneous locomotor activity in rats; assay: Spontaneous locomotor activity; format: in vivo; settings: Rattus norvegicus, ip, 0.5 h; I.P., rats, 30 minutes after administration, 30 minute activity count; read-out: SD50 (dose causing 50% reduction from control activity)
5 day lethality, rats = settings: rat, in vivo, ip
Text: as §4

[8] = test system: d-amphetamine aggregation-induced lethality; assay: d-Amphetamine aggregation; format: in vivo; settings: inactive at: Example 6 200 mg/kg, chlordiazepoxide 50 mg/kg
Procedure: Protection from d-amphetamine aggregation-induced lethality is usually afforded by alpha-adrenergic-blocking agents such as chlorpromazine, phenoxybenzamine, etc. Percent protection was determined and an ED50 value was calculated.

[9] = test system: tetrabenazine-induced ptosis in mice; assay: Antagonism of tetrabenazine-induced ptosis; format: in vivo, mouse; settings: 200 mg/kg, 30 minutes before tetrabenazine 32 mg/kg intraperitoneally
Procedure: Groups of mice were given 32 mg/kg of tetrabenazine intraperitoneally 30 minutes after an injection of the compound of Example 6 (200 mg/kg). The degree of ptosis (eyelid drooping or closure) was then determined exactly 30 minutes after tetrabenazine administration.

[10] = test system: dihydroxyphenylalanine-induced fighting behavior in mice; assay: Dihydroxyphenylalanine (DOPA) fighting test; format: in vivo, mouse
Procedure: It is well known that when monoamine oxidase inhibitors are administered prior to the administration of d1-DOPA, which is a noradrenaline precursor, convulsions or excitation occur. In this study, the MAO inhibitor pargyline (80 mg/kg) was given 1, 2 and 4 hours prior to administering 200 mg/kg of d1-DOPA. […] Thus, in this procedure, none of the agents tested appears to be a MAO inhibitor.

[11] = Neurotoxicity (rotating rod / rotorod), rats; settings: rat, in vivo, ip
Procedure: as §3

[12] = test system: pentylenetetrazol seizures in mice; assay: Pentylenetetrazol seizures; format: in vivo, mouse; settings: I.P., mice; inactive at: Example 6 200 mg/kg, chlorpromazine 100 mg/kg
Procedure: In this test (modification of the method introduced by Everett and Richard, J. Pharmacol. Exptl. Ther., 81: 402, 1944), groups of ten mice each are pretreated i.p. with vehicle and various doses of the compound of Example 6 and placed in Plexiglas squares. Thirty minutes later, all mice are injected subcutaneously (s.c.) with pentylenetetrazol at 125 mg/kg and observed immediately thereafter for convulsions and death for a period of 1 hour.

[13] = test system: electroshock-induced fighting in mice; assay: Electroshock-induced fighting in mice; format: in vivo, mouse; settings: i.p. administration
Text: as §2

[14] = test system: hissing response elicited by hypothalamic stimulation in cats; assay: Evoked hypothalamic rage response - cats; format: in vivo, cat; settings: 25 mg/kg orally for three days
Text: The effect of the compound of Example 6 on the hissing response elicited by hypothalamic stimulation in cats was studied in an effort to determine if it had properties similar to that of chlordiazepoxide and other anti-anxiety-like agents. […] Cats with chronically implanted electrodes, stereotaxically placed in the perifornical region of the hypothalamus, were used in this study. Stimulation was accomplished in the unanesthetized, freely moving animal, and the threshold for the hissing response was determined with the following stimulus parameters: square wave stimulation of 150 Hz with a duration of 0.5 msec and voltage ranging from 5.4 to 30. The compound of Example 6 was administered orally in capsule form. Following administration, the stimulation threshold for the hiss response was determined at 1, 2, 4, 6 and 24 hours. If an effect was observed, the stimulation was carried out daily until the thresholds returned to control values. The compound of Example 6 was administered orally at a dose of 25 mg/kg for three days. […] It can be concluded that the compound of Example 6 has no effect on hypothalamic excitability in cats and in this respect differs markedly from chlordiazepoxide.

[15] = test system: maximal electroshock seizures in mice; assay: Maximal electroshock seizures; format: in vivo, mouse; settings: I.P., mice; inactive at: Example 6 200 mg/kg, chlorpromazine 25 mg/kg
Procedure: Groups of ten mice each were injected i.p. with a vehicle and the compound of Example 6 and placed in individual Plexiglas squares. Thirty minutes after i.p. injection, each mouse was administered an electric shock transcorneally at 50mA intensity, 0.2 seconds duration (Swinyard, et al, J. Pharmacol. Exptl. Ther., 106: 319, 1952). The criterion for activity is protection against tonic extension of the hind limbs. The dose necessary to protect 50% of the mice (MES50) was determined.

CNCCCN1c2ccccc2CCc2ccccc21 [desipramine]
reversal of tetrabenazine-induced ptosis by anti-depressants [1]: reverse tetrabenazine-induced ptosis

Cc1nc(NN=Nc2ccccc2C(=O)NCCCN(C)C)sc1C(=O)NCc1ccccc1 [Example 7, N-(3-dimethylaminopropyl)-2-[3-(4-methyl-5-(N-benzylcarbamoyl)-2-thiazolyl)-2(or 1)-triazeno]-benzamide (2:1) sulfate salt]
protected test animals in the IFM test [2]: 100%
TD50 [3]: > 100 mg/kg
depression [4]: do not cause depression
responders at 60 mg/kg [5]: 100%
septal rat aggression, protection ([6]; 6.25 mg/kg i.p.): 100%
septal rat aggression, protection ([6]; 12.5 mg/kg i.p.): 100%
ED50 ([6]; indicated by 100% protection at 6.25 mg/kg, read-out: ED50, septal rat aggression): < 6.25 mg/kg

CN(C)CCC=C1c2ccccc2CCc2ccccc21 [amitriptyline]
reversal of tetrabenazine-induced ptosis by anti-depressants [1]: reverse tetrabenazine-induced ptosis

Cc1nc(NN=Nc2ccccc2C(N)=O)sc1C(=O)NCc1ccccc1 [Example 6, 2-[3-(4-methyl-5-(N-benzyl-carbamoyl)-2-thiazolyl)-2(or 1)-triazeno]-benzamide]
responders at 30 mg/kg [2]: 100%
ED50 ([2]; i.p. administration, read-out: ED50 (95% Confidence Limits), Isolated Mouse Aggression): 1.8 mg/kg
NTD50/ED50, Isolated Mouse Aggression ([2]; i.p. administration): 710
LD50 at 120 h (5 day lethality, mice; ip): > 1280 mg/kg
LD50 at 120 h (5 day lethality, mice; po): > 800 mg/kg
deaths in neuropharmacological profile (mice; 30, 100, 300 mg/kg, mice): No deaths occurred
central nervous system depressant action, profile result (mice; mouse, in vivo): very weak central nervous system depressant
ED50 [7]: ~500 mg/kg
TD50 ([3]; ip, I.P., mice, 95% confidence limits, read-out: NTD50): > 1280 mg/kg
LD50 at 120 h (5 day lethality, rats): > 1400 mg/kg
ED50, d-amphetamine aggregation [8]: Inactive
reversal of tetrabenazine-induced ptosis [9]: did not reverse tetrabenazine-induced ptosis
excitation, salivation, jumping, and fighting with d1-DOPA ([10]; 200 mg/kg d1-DOPA, pargyline 80 mg/kg, Example 6 100 mg/kg, chlorpromazine 5 mg/kg, chlordiazepoxide 15 mg/kg): these symptoms were not observed
potentiation of dihydroxyphenylalanine-induced fighting behavior in mice ([10]; mice): failed to (1) potentiate dihydroxyphenylalanine-induced fighting behavior in mice
TD50 [11]: ~500 mg/kg
ED50 ([6]; i.p. administration, read-out: ED50 (95% Confidence Limits), Septal Rat Aggression): ~4.5 mg/kg
NTD50/ED50, Septal Rat Aggression ([6]; i.p. administration): 111.0
selectivity in inhibition of septal rat aggression versus chlordiazepoxide ([6]; septal rat): 185 times
MET50 [12]: Inactive
ED50 ([13]; Mus musculus, ip, read-out: ED50 (95% Confidence Limits), Electroshock-Induced Fighting in Mice): 96 mg/kg
NTD50/ED50, Electroshock-Induced Fighting in Mice [13]: 13.3
decrease of the threshold for the rage response [14]: not observed during the experiments
delay from stimulus to response [14]: not changed
rage response, intensity or character [14]: not changed in intensity or character
effect on hypothalamic stimulation (threshold) ([14]; 25 mg/kg): no effect on hypothalamic stimulation
MES50 [15]: Inactive

Cc1ccc(NN=Nc2ccccc2C(N)=O)cc1Cl [Example 3, 2-[3-(3-chloro-4-methylphenyl)-1(or 2)-triazeno]-benzamide]
responders at 30 mg/kg [2]: 100%
ED50 ([2]; i.p. administration, read-out: ED50 (IFM)): 9.1 mg/kg
protected test animals in the IFM test [2]: 100%
TD50 [3]: > 100 mg/kg
depression [4]: do not cause depression
